Values joined by “and” are separate entries in the source; they are usually repeats but may differ in a detail not shown here. Identical values can stand only once. Bounds are passed on as bounds.

Broadly, the IC50 is the point on the concentration scale where inhibition reaches its midpoint. Usually viability, T/C stands for the ratio of treated to control.

The experiment concerns MDA-MB-468 multi-cell spheroids, viability. The experiment can be described thus: Anticancer human tumor MDA-MB-468 cell line growth inhibition [IpAb].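 On all read-outs here: spheroids exposed to agents for seven days.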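 On viability, T/C: 100% = DMSO vehicle control viability.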 The settings on record: for viability, T/C: stronger effect = lower value. The procedure, abridged:
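Spheroids of 60% malignant cells, 25% HUVEC and 15% MSC were exposed to targeted agents combined with ipatasertib or abemaciclib. Doses started at or near clinical Cmax (10 microM when unknown) and fell in half-log steps.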

The mark [1] stands for this setting: curve of first compound, second compound 0.1 µM.
Where [2] appears, read: curve of first compound, second compound 0.316 µM.
The mark [3] stands for this setting: curve of first compound, second compound 1 µM.
[4] abbreviates: curve of first compound, second compound 3.16 µM.
[5] abbreviates: curve of first compound, second compound 10 µM.
The mark [6] stands for this setting: second compound 0.1 µM, first compound 0.0316 µM.
[7] abbreviates: second compound 0.1 µM, first compound 0.1 µM.
Setting [8] is: second compound 0.1 µM, first compound 0.316 µM.
Setting [9] is: second compound 0.1 µM, first compound 1 µM.
Setting [10] is: second compound 0.1 µM, first compound 3.16 µM.
Setting [11] is: second compound 0.1 µM, first compound 10 µM.
Setting [12] is: second compound 0.316 µM, first compound 0.0316 µM.
Setting [13] is: second compound 0.316 µM, first compound 0.1 µM.
[14] abbreviates: second compound 0.316 µM, first compound 0.316 µM.
The mark [15] stands for this setting: second compound 0.316 µM, first compound 1 µM.
[16] abbreviates: second compound 0.316 µM, first compound 3.16 µM.
Setting [17] is: second compound 0.316 µM, first compound 10 µM.
The mark [18] stands for this setting: second compound 1 µM, first compound 0.0316 µM.
Where [19] appears, read: second compound 1 µM, first compound 0.1 µM.
The mark [20] stands for this setting: second compound 1 µM, first compound 0.316 µM.
[21] abbreviates: second compound 1 µM, first compound 1 µM.
Where [22] appears, read: second compound 1 µM, first compound 3.16 µM.
Where [23] appears, read: second compound 1 µM, first compound 10 µM.
Setting [24] is: second compound 3.16 µM, first compound 0.0316 µM.
Where [25] appears, read: second compound 3.16 µM, first compound 0.1 µM.
Where [26] appears, read: second compound 3.16 µM, first compound 0.316 µM.
The mark [27] stands for this setting: second compound 3.16 µM, first compound 1 µM.
Setting [28] is: second compound 3.16 µM, first compound 3.16 µM.
[29] abbreviates: second compound 3.16 µM, first compound 10 µM.
Setting [30] is: second compound 10 µM, first compound 0.0316 µM.
The mark [31] stands for this setting: second compound 10 µM, first compound 0.1 µM.
The mark [32] stands for this setting: second compound 10 µM, first compound 0.316 µM.
[33] abbreviates: second compound 10 µM, first compound 1 µM.
[34] abbreviates: second compound 10 µM, first compound 3.16 µM.
Setting [35] is: second compound 10 µM, first compound 10 µM.

Turning to `Cn1ncc(Cl)c1-c1cc(C(=O)NC(CN)Cc2cccc(F)c2)sc1Cl` (stereo unspecified) + CC(C)NCC(C(=O)N1CCN(c2ncnc3c2C(C)CC3O)CC1)c1ccc(Cl)cc1, the IC50 was 366 nM under setting [1]; 133 nM under setting [2]; 52.2 nM under setting [3]; below 31.6 nM under setting [4]; below 31.6 nM under setting [5]. Also, the viability, T/C is 71.1% under setting [6]; 64% under setting [7]; 54.8% under setting [8]; 30.3% under setting [9]; 16.1% under setting [10]; 0.14% under setting [11]. In addition, the viability, T/C by setting is: under setting [12], 57.7%; under setting [13], 51.5%; under setting [14], 44%; under setting [15], 31.8%; under setting [16], 16.6%; under setting [17], 0.13%. Also, the viability, T/C under setting [18] is 50.5%; the viability, T/C under setting [19] is 50.9%; the viability, T/C under setting [20] is 36.3%; the viability, T/C under setting [21] is 28.4%; the viability, T/C under setting [22] is 12.6%; the viability, T/C under setting [23] was 0.12%. The viability, T/C runs as follows: under setting [24], 31.8%; under setting [25], 36.1%; under setting [26], 31.5%; under setting [27], 21.3%; under setting [28], 10.8%; under setting [29], 0.37%. Besides, the viability, T/C is, setting by setting: under setting [30], 18.8%; under setting [31], 20.4%; under setting [32], 17.4%; under setting [33], 17.4%; under setting [34], 1.85%; under setting [35], 0.18%.

As to `CC(C)(C)c1cnc(CSc2cnc(NC(=O)C3CCNCC3)s2)o1`, the viability, T/C runs as follows: (compound 0.00949 µM) 90.5% and 95.1%; (compound 0.03 µM) 98.2% and 96.8%; (compound 0.0949 µM) 44.3% and 64.7%; (compound 0.3 µM) 0.55% and 0.39%; (compound 0.949 µM) 0.44% and 0.29%; (compound 3 µM) 0.51% and 0.39%. The IC50 (curve of compound) was 83.2 nM and 123 nM.

Take `CCCS(=O)(=O)Nc1ccc(F)c(C(=O)c2c[nH]c3ncc(-c4ccc(Cl)cc4)cc23)c1F` + CC(C)NCC(C(=O)N1CCN(c2ncnc3c2C(C)CC3O)CC1)c1ccc(Cl)cc1: the concentration for half-maximal inhibition (IC50) under setting [1] is above 10000 nM; the IC50 under setting [2] came to 9960 nM; the IC50 under setting [3] is 498 nM; the IC50 under setting [4] was below 31.6 nM; the IC50 under setting [5] was below 31.6 nM. For the same molecule, the viability, T/C is, setting by setting: under setting [6], 86.3%; under setting [7], 87.3%; under setting [8], 98.5%; under setting [9], 98%; under setting [10], 71.7%; under setting [11], 50.1%. Further, the viability, T/C reads like this: under setting [12], 62.2%; under setting [13], 60.7%; under setting [14], 62.5%; under setting [15], 74.8%; under setting [16], 53.3%; under setting [17], 39.3%. For the same molecule, the viability, T/C is 58.4% under setting [18]; 53.6% under setting [19]; 52.6% under setting [20]; 46% under setting [21]; 40.1% under setting [22]; 27.8% under setting [23]. The viability, T/C was 35.7% under setting [24]; 34.1% under setting [25]; 29.4% under setting [26]; 31.3% under setting [27]; 30.1% under setting [28]; 18.6% under setting [29]. The viability, T/C by setting is: under setting [30], 17.3%; under setting [31], 18.3%; under setting [32], 18.9%; under setting [33], 16.9%; under setting [34], 13.7%; under setting [35], 2.03%.

Consider `CC1(C)CCC(CN2CCN(c3ccc(C(=O)NS(=O)(=O)c4ccc(NCC5CCOCC5)c([N+](=O)[O-])c4)c(Oc4cnc5[nH]ccc5c4)c3)CC2)=C(c2ccc(Cl)cc2)C1`, for which the viability, T/C by setting is: (compound 0.0316 µM) 111% and 107%; (compound 0.1 µM) 106% and 94.5%; (compound 0.316 µM) 102% and 89.2%; (compound 1 µM) 95.9% and 85.8%; (compound 3.16 µM) 73% and 52.9%; (compound 10 µM) 10% and 5.86%. For the same molecule, the IC50 (curve of compound) is 4770 nM and 3520 nM.

As to `CC(C)NCC(C(=O)N1CCN(c2ncnc3c2C(C)CC3O)CC1)c1ccc(Cl)cc1` (stereo unspecified), the viability, T/C (compound 0.1 µM) is 91.9% [middle of 13 runs]; the viability, T/C (compound 1 µM) is 54.4% [middle of 13 runs]; the viability, T/C (compound 3.16 µM) was 35.1% [middle of 13 runs]; the viability, T/C (compound 10 µM) was 18.4% [middle of 13 runs]. Also, the half-maximal inhibitory concentration (IC50) (compound alone, run of 05/18/2021) was 1.25 µM [middle of 12 runs].

Take `CC(=O)c1c(C)c2cnc(Nc3ccc(N4CCNCC4)cn3)nc2n(C2CCCC2)c1=O` + CC(C)NCC(C(=O)N1CCN(c2ncnc3c2C(C)CC3O)CC1)c1ccc(Cl)cc1: the 50% inhibitory concentration (IC50) runs as follows: under setting [1], above 300 nM; under setting [2], above 300 nM; under setting [3], 4.44 nM; under setting [4], below 0.949 nM; under setting [5], below 0.949 nM. For the same molecule, the viability, T/C by setting is: (second compound 0.1 µM, first compound 0.000949 µM) 87.4%; (second compound 0.1 µM, first compound 0.003 µM) 80.3%; (second compound 0.1 µM, first compound 0.00949 µM) 73.1%; (second compound 0.1 µM, first compound 0.03 µM) 81%; (second compound 0.1 µM, first compound 0.0949 µM) 71.4%; (second compound 0.1 µM, first compound 0.3 µM) 77.8%. Moreover, the viability, T/C is 66.1% (second compound 0.316 µM, first compound 0.000949 µM); 61% (second compound 0.316 µM, first compound 0.003 µM); 57.4% (second compound 0.316 µM, first compound 0.00949 µM); 54.8% (second compound 0.316 µM, first compound 0.03 µM); 59.5% (second compound 0.316 µM, first compound 0.0949 µM); 59.5% (second compound 0.316 µM, first compound 0.3 µM). For the same molecule, the viability, T/C by setting is: (second compound 1 µM, first compound 0.000949 µM) 57.9%; (second compound 1 µM, first compound 0.003 µM) 51.8%; (second compound 1 µM, first compound 0.00949 µM) 46.4%; (second compound 1 µM, first compound 0.03 µM) 48.1%; (second compound 1 µM, first compound 0.0949 µM) 49.6%; (second compound 1 µM, first compound 0.3 µM) 48.3%. In addition, the viability, T/C reads like this: (second compound 3.16 µM, first compound 0.000949 µM) 35.9%; (second compound 3.16 µM, first compound 0.003 µM) 36.4%; (second compound 3.16 µM, first compound 0.00949 µM) 31.9%; (second compound 3.16 µM, first compound 0.03 µM) 32.7%; (second compound 3.16 µM, first compound 0.0949 µM) 29.5%; (second compound 3.16 µM, first compound 0.3 µM) 29.8%. For the same molecule, the viability, T/C (second compound 10 µM, first compound 0.000949 µM) is 18.6%; the viability, T/C (second compound 10 µM, first compound 0.003 µM) is 19.3%; the viability, T/C (second compound 10 µM, first compound 0.00949 µM) is 19.9%; the viability, T/C (second compound 10 µM, first compound 0.03 µM) was 17.5%; the viability, T/C (second compound 10 µM, first compound 0.0949 µM) is 17.3%; the viability, T/C (second compound 10 µM, first compound 0.3 µM) is 17.6%.

With `CC(=O)c1c(C)c2cnc(Nc3ccc(N4CCNCC4)cn3)nc2n(C2CCCC2)c1=O`, the viability, T/C (compound 0.000949 µM) was 93.7% and 99%; the viability, T/C (compound 0.003 µM) is 91.4% and 97.5%; the viability, T/C (compound 0.00949 µM) was 92% and 93.8%; the viability, T/C (compound 0.03 µM) was 88.1% and 91.8%; the viability, T/C (compound 0.0949 µM) is 92.4% and 81.4%; the viability, T/C (compound 0.3 µM) is 90.2% and 73.4%. Moreover, where the note is “curve of compound”, the IC50 is above 300 nM.

The values are drawn from PubChem BioAssay AID2060326 (Molecular Pharmacology Branch, DTP, NCI, 2025).
